Measured values reported in patent publication US20150126534A1, “ENZYME AND RECEPTOR MODULATION” (Chroma Therapeutics Ltd, priority 2005, published 2015).
Counter-ions that a name gives are not always drawn. Like-named read-outs stand apart in the source and are kept apart here. Blank lines part the entries; values can stand above or below the compound they belong to.

Tests used:
[1] = tested on: U937 cells (monocytic cell line); assay: Cell proliferation inhibition assay (WST-1), U937; type: cell-based; conditions: for IC50: Homo sapiens
Description: (§1) Following 24 h of growth cells were treated with compound. Plates were then re-incubated for a further 72-96 h before a WST-1 cell viability assay was conducted according to the suppliers (Roche Applied Science) instructions.
(§2) Data were expressed as a percentage inhibition of the control, measured in the absence of inhibitor, as follows: —
(§3) where S^i is the signal in the presence of inhibitor and S^o is the signal in the presence of DMSO.
(§4) Dose response curves were generated from 8 concentrations (top final concentration 10 μM, with 3-fold dilutions), using 6 replicates.

[2] = tested on: HCT116 (non-monocytic cell line); assay: Cell proliferation inhibition assay (WST-1), HCT116; type: cell-based; conditions: for Ratio IC50 cell/enzyme: HCT116 cell proliferation IC50 / DHFR enzyme IC50; for IC50: Homo sapiens
Description: as §1, §2, §3, §4

human aurora kinase A = biological target: T1, human aurora kinase A (Homo sapiens, UniProt O14965); assay: Aurora kinase A inhibitory activity assay (Flashplate, 33P-ATP); type: biochemical; conditions: 10 μM ATP; read-out: Enzyme inhibition IC50 nM (Aurora kinase A)
T1 construct: recombinant, full length human aurora kinase A, N-terminally fused to GST; GST (N); purchased ProQuinase (so in the source); host or cells: baculovirus / Sf21 insect cells
T1 sequence (O14965 1-403): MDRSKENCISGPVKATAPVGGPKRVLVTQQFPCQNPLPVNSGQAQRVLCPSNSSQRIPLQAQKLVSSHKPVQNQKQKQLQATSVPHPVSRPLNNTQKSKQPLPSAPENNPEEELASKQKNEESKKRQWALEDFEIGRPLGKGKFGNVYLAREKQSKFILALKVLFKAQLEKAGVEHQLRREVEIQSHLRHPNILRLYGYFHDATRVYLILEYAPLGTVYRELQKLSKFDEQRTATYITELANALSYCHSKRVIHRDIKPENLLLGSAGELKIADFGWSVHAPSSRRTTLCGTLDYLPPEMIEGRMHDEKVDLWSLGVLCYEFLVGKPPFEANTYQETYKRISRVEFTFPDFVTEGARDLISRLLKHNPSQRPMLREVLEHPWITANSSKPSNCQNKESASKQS
Description: The ability of compounds to inhibit aurora kinase A activity was measured using a microplate assay. In brief, 96-well Flashplates® (PerkinElmer Life Sciences) were pre-coated with myelin basic protein (MBP). MBP (100 ul of […] in PBS) was incubated at 37° C. for 1 h, followed by overnight incubation at 4° C. Plates were then washed with PBS and allowed to air dry.
Wells lacking inhibitor were used as vehicle controls and wells containing no enzyme were used to measure the ‘background’ signal. Plates were incubated overnight at 30° C. After incubation the contents of the wells were removed and the plates washed three times with PBS containing 10 mM tetra sodium pyrophosphate prior to scintillation counting using a Wallac MicroBeta TriLux.
Dose response curves were generated from 10 concentrations (top final concentration 10 μM, with 3-fold dilutions), using triplicate wells.
[…] values were determined by non-linear regression analysis, after fitting the data point results to the equation for sigmoidal dose response with variable slope (% activity against log concentration of compound), using Xlf it software.

p38 MAP kinase α = biological target: T2, p38 MAP kinase α (Homo sapiens, UniProt Q16539); assay: P38 MAP kinase α inhibitory activity assay; type: biochemical; conditions: ATP 90 μM; read-out: Enzyme inhibition IC50 nM (P38 MAP kinase)
T2 construct: full length human enzyme expressed in E coli as an N-terminally GST-tagged protein; GST (N); purchased Upstate (Dundee UK), assay run by the vendor; host or cells: E. coli
Description: The ability of compounds to inhibit p38 MAP kinase α (full length human enzyme expressed in E coli as an N-terminally GST-tagged protein) activity was measured in an assay performed by Upstate (Dundee UK). […] The reaction was initiated by the addition of the MgATP mix. After incubation for 40 minutes at room temperature, the reaction was stopped by the addition of 5 μl of a 3% phosphoric acid solution. 10 μl of the reaction was then spotted onto a P30 filtermat and washed three times for 5 minutes in 75 mM phosphoric acid and once in methanol, prior to drying and scintillation counting.
Dose response curves were generated from a ½ log dilution series of a stock inhibitor solution in DMSO. Nine dilutions steps were made from a top, final concentration of 10 μM, and a ‘no compound’ blank was included. Samples were run in duplicate. Data from scintillation counts were collected and subjected to free-fit analysis by Graphpad Prism software. From the curve generated, the concentration giving 50% inhibition was determined.

[3] = tested on: TNFα production in human whole blood; assay: LPS-stimulation of human whole blood, TNF-α ELISA; type: cell-based; conditions: for IC50: Homo sapiens, 6 h; for Ratio IC50 WB/enzyme: whole blood TNFα IC50 / P38 MAP kinase IC50
Description: Whole blood was taken by venous puncture using heparinised vacutainers (Becton Dickinson) and diluted in an equal volume of RPMI1640 tissue culture media. 100 μl was plated in V-bottomed 96 well tissue culture plates. Inhibitor was added in 100 μl of RPMI1640 media, and 2 h later the blood was stimulated with LPS (E coli strain 005:B5, Sigma) at a final concentration of 100 ng/ml and incubated at 37° C. in 5% CO2 for 6 h. TNF-α levels were measured from cell-free supernatants by sandwich ELISA (R&D Systems #QTA00B).

PI 3-kinase γ = biological target: T3, PI 3-kinase γ (Homo sapiens, UniProt P48736); assay: PI 3-kinase γ inhibition assay (HTRF); type: biochemical; conditions: 100 μM MgATP; read-out: Enzyme inhibition IC50 nM (PI3-Kinase)
T3 construct: recombinant N-terminally His6-tagged, full length human enzyme; His6 (N); purchased Upstate (Dundee, UK), assay run by the vendor; host or cells: baculovirus / Sf21 insect cells
Description: The measurement of PI 3-kinase γ activity is dependent upon the specific and high affinity binding of the GRP1 pleckstrin homology (PH) domain to PIP3, the product of PI 3-kinase activity. A complex is formed between europium-labelled anti-GST monoclonal antibody, a GST-tagged GRP1 PH domain, biotinylated PIP3 and streptavidin-allophycocyanin (APC). This complex generates a stable time-resolved fluorescence resonance energy transfer (FRET) signal, which is diminished by competition of PIP3, generated in the PI 3-kinase assay, with the biotinylated PIPS.
The reaction was initiated by the addition of the MgATP mix. After incubation for 30 minutes at room temperature, the reaction was stopped by the addition of 5 μl of stop solution containing EDTA and biotinylated phosphatidylinositol-3,4,5-trisphosphate. Finally, 5 μl of detection buffer was added, which contained europium-labelled anti-GST monoclonal antibody, GST-tagged GRP1 PH domain and streptavidin-APC. The plate was then read in time-resolved fluorescence mode and the homogenous time-resolved fluorescence (HTRF) signal was determined according to the formula HTRF=10000×(Em665 nm/Em620 nm).
Duplicate data points were generated from a ½ log dilution series of a stock solution of compound in DMSO. Nine dilutions steps were made from a top final concentration of 10 μM, and a ‘no compound’ blank was included. HTRF ratio data were transformed into % activity of controls and analysed with a four parameter sigmoidal dose-response (variable slope) application. The concentration giving 50% inhibition (1050) was determined.

[4] = U-937, read-out: Cell proliferation IC50 nM (U937 cells)
[5] = U937 cell proliferation IC50 / DHFR enzyme IC50
[6] = U-937, U937 monocytic cell line, read-out: Cell proliferation IC50 nM (U937 cells)
[7] = HCT-116, HCT116 non-monocytic cell line, read-out: Cell proliferation IC50 nM (HCT116)
[8] = U937 cell proliferation IC50 / Aurora kinase A IC50
[9] = LPS 100 ng/ml, read-out: Inhibition of TNFα production in human whole blood IC50

T2 sequence (Q16539 whole entry): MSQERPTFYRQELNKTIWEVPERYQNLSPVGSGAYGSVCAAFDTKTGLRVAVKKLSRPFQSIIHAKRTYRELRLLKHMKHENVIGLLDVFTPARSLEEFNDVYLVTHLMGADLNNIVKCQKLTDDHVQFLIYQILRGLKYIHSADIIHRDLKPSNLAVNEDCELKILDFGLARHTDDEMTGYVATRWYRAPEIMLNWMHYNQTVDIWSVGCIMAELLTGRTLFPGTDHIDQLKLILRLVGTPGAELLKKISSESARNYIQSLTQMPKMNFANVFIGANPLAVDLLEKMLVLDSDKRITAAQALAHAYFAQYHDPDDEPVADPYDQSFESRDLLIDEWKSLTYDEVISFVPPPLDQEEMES
T3 sequence (P48736 whole entry): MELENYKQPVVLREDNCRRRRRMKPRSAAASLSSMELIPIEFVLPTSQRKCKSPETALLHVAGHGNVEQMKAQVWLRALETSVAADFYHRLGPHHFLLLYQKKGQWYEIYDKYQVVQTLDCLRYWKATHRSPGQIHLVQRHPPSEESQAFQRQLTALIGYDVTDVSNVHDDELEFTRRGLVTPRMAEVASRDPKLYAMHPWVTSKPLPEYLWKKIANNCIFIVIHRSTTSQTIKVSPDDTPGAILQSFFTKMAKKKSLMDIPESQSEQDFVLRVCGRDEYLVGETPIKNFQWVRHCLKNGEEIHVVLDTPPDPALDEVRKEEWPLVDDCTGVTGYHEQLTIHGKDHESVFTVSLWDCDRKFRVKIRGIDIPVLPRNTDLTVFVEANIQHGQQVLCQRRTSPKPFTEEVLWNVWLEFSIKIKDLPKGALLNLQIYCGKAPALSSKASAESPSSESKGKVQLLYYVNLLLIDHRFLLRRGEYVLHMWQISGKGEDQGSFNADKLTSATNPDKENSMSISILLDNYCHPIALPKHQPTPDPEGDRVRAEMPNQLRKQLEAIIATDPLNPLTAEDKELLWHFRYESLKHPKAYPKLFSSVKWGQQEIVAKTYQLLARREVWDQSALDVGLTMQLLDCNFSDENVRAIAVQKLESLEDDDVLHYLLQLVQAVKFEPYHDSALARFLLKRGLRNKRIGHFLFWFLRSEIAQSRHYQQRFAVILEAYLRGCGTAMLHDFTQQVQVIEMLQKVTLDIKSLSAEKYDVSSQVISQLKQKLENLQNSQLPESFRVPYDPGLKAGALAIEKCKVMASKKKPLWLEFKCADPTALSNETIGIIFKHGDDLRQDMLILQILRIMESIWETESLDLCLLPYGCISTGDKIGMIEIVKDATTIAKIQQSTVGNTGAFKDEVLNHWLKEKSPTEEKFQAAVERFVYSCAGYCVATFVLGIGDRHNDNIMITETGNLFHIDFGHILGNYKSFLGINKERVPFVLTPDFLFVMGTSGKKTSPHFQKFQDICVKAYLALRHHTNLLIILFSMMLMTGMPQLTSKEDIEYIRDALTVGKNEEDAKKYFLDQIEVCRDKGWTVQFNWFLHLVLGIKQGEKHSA

SMILES: COc1cc(NCc2cnc3nc(N)nc(N)c3c2C)cc(OC)c1OC [Compound 2 G = N, 5-Methyl-6-((3,4,5-trimethoxyphenylamino)methyl)pyrido[2,3-d]pyrimidine-2,4-diamine, reference compound]
IC50 [1, 4]: 2200 nM | Ratio IC50 cell/enzyme [1, 5]: 220 | selectivity between a monocytic and non-monocytic cell line (cell proliferation) ([1]; U937 versus HCT116): no selectivity | Ratio IC50 cell/enzyme [2]: 170 | IC50 ([2]; HCT-116, read-out: Cell proliferation IC50 nM (HCT116)): 1700 nM

SMILES: Cc1c(CNc2ccc(OCC[C@H](N)C(=O)OC3CCCC3)cc2)cnc2nc(N)nc(N)c12 [Compound 3, (S)-2-Amino-4-{4-[(2,4-diamino-5-methyl-pyrido[2,3-d]pyrimidin-6-ylmethyl)-amino]-phenoxy}-butyric acid cyclopentyl ester]
IC50 [1, 6]: 5100 nM | Ratio IC50 cell/enzyme [1, 5]: 1.9 | Ratio IC50 cell/enzyme [2]: 1.4 | IC50 [2, 7]: 7300 nM

SMILES: Cc1c(CNc2ccc(C(=O)N[C@@H](CC(C)C)C(=O)OC3CCCC3)cc2)cnc2nc(N)nc(N)c12 [Compound 6, (S)-2-{4-[(2,4-Diamino-5-methyl-pyrido[2,3-d]pyrimidin-6-ylmethyl)-amino]-benzoylamino}-4-methyl-pentanoic acid cyclopentyl ester]
IC50 [1, 6]: 23 nM | Ratio IC50 cell/enzyme [1, 5]: 0.013 | fold more potent than the unmodified analogue (2 G=N) ([1]; U937 cells): 100 fold | fold more potent than the unmodified analogue (2 G=N) ([2]; HCT116): 15 fold | Ratio IC50 cell/enzyme [2]: 0.04 | IC50 [2, 7]: 110 nM

SMILES: O=C(CCCCCCC(=O)Nc1ccccc1)NO [Compound 7, Suberoylanilide hydroxamic acid, reference compound]
IC50 [1, 4]: 400 nM

SMILES: COc1cc2nccc(Oc3ccc(NC(=O)c4ccccc4)cc3)c2cc1OC [Compound 11, N-{4-(7-methoxy-6-methoxy-quinoline-4-yloxy)-phenyl}-benzamide, reference compound]
IC50 [1, 6]: 430 nM | Ratio IC50 cell/enzyme [1, 8]: 1.3 | IC50 (human aurora kinase A): 350 nM

SMILES: COc1cc2c(Oc3ccc(NC(=O)c4ccccc4)cc3)ccnc2cc1OCC[C@H](N)C(=O)OC1CCCC1 [Compound 12, (S)-2-amino-4-[4-(4-benzoylamino-phenoxy)-6-methoxy-quinolin-7-yloxy]-butyric acid cyclopentyl ester]
IC50 [1, 6]: 3.5 nM | Ratio IC50 cell/enzyme [1, 8]: 0.0015 | IC50 (human aurora kinase A): 2300 nM

SMILES: Nc1c(C(=O)c2ccc(F)cc2F)ccc(=O)n1-c1c(F)cc(OCC[C@H](N)C(=O)OC2CCCC2)cc1F [Compound 16, cyclopentyl (S)-2-Amino-4-(4-[6-amino-5-(2,4-difluorobenzoyl)-2-oxo-2H-pyridin-1-yl]-3,5-difluorophenoxy)butanoate trifluoroacetate]
IC50 (p38 MAP kinase α): 25 nM | IC50 ([3]; read-out: Inhibition of TNFα production in human whole blood IC50 nM): 20 nM | Ratio IC50 WB/enzyme [3]: 0.8

The next lines start with results.

IC50 [1, 6]: > 5000 nM | IC50 (human aurora kinase A): 500 nM
SMILES: COc1cc2c(Oc3ccc(NC(=O)c4ccccc4)cc3)ccnc2cc1OCC[C@H](N)C(=O)O [Compound 13]

IC50 [1, 6]: 75 nM | IC50 (human aurora kinase A): 3000 nM
SMILES: COc1cc2c(Oc3ccc(NC(=O)c4ccccc4)cc3)ccnc2cc1OCC[C@H](N)C(=O)OC(C)(C)C [Compound 14, (S)-2-Amino-4-[4-(4-benzoylamino-phenoxy)-6-methoxy-quinolin-7-yloxy]-butyric acid tert-butyl ester]
fold less active in the cell assay than cyclopentyl ester (Compound 12) ([1]; U937 cell proliferation): ~20 fold | Ratio IC50 cell/enzyme [1, 8]: 0.025

IC50 (p38 MAP kinase α): 50 nM | IC50 [3, 9]: 300 nM
SMILES: Nc1c(C(=O)c2ccc(F)cc2F)ccc(=O)n1-c1c(F)cccc1F [Compound 15, 6-Amino-5-(2,4-difluoro-benzoyl)-1-(2,6-difluoro-phenyl)-1H-pyridin-2-one, reference compound]
Ratio IC50 WB/enzyme [3]: 6

IC50 (p38 MAP kinase α): 30 nM
SMILES: Nc1c(C(=O)c2ccc(F)cc2F)ccc(=O)n1-c1c(F)cc(OCC[C@H](N)C(=O)O)cc1F [Compound 17, (S)-2-Amino-4-(4-[6-amino-5-(2,4-difluorobenzoyl)-2-oxo-2H-pyridin-1-yl]-3,5-difluorophenoxy)butanoic acid]

IC50 (p38 MAP kinase α): 40 nM | IC50 [3, 9]: 750 nM
SMILES: CC(C)(C)OC(=O)[C@@H](N)CCOc1cc(F)c(-n2c(N)c(C(=O)c3ccc(F)cc3F)ccc2=O)c(F)c1 [Compound 18, (S)-2-Amino-4-{4-[6-amino-5-(2,4-difluoro-benzoyl)-2-oxo-2H-pyridin-1-yl]-3,5-difluoro-phenoxy}-butyric acid tert-butyl ester]
Ratio IC50 WB/enzyme [3]: 18

IC50 (PI 3-kinase γ): 3600 nM
SMILES: Cc1nc(NC(=O)CC[C@H](N)C(=O)O)sc1-c1ccc(Cl)c(S(C)(=O)=O)c1 [Compound 22, (S)-2-Amino-4-[5-(4-chloro-3-methanesulfonyl-phenyl)-4-methyl-thiazol-2-ylcarbamoyl]-butyric acid]

IC50 [1, 6]: 1900 nM | IC50 [2, 7]: 6100 nM
SMILES: COc1cc2c(Oc3ccc(NC(=O)c4ccccc4)cc3)ccnc2cc1OCC[C@H](NC1CCCCC1)C(=O)OC1CCCC1 [Compound 25, (S)-4-[4-(4-Benzoylamino-phenoxy)-6-methoxy-quinolin-7-yloxy]-2-cyclohexylamino-butyric acid cyclopentyl ester]
